{
  "source": "paper PMC10218704",
  "about": "“A Novel Blood–Brain Barrier-Penetrating and Vascular-Targeting Chimeric Peptide Inhibits Glioma Angiogenesis” (International Journal of Molecular Sciences, 2023)",
  "key": {"red blood cells": {"system": "red blood cells", "assay": "Hemolysis assay", "details": "2.5–640 μmol/L; 37 °C, 1 h; 540 nm; mouse red blood cells; n = 3", "procedure": "The fresh blood of mice was centrifuged at 2000 r/min for 10 min, and the upper layer of serum was discarded, then mixed with normal saline and centrifuged at 2000 r/min for 10 min, repeated three times, and the supernatant was removed to obtain the lower layer of red blood cells. Then, 1 mL of red blood cells was diluted to 50 mL with normal saline. […] The samples were incubated at 37 °C for 1 h, centrifuged at 2000 r/min for 10 min, and photographed. Light absorption of samples was measured at 540 nm on a microplate reader.\nCell hemolysis rate (%) = (OD experimental group − negative control group)/(OD positive control group − negative control group) × 100%."}, "NRP-1 [1]": {"system": "NRP-1", "details": "peptide 1000 nmol/L; VEGF-A165 0.5-8 nmol/L; CM5 chip; HBS-EP", "method": "The SPR assay was performed using the Biacore S200 instrument (GE Healthcare, Uppsala, Sweden). Firstly, the CM5 sensor chip was activated with EDC/NHS. Then, the recombinant VEGFR-2 and NRP-1 proteins were immobilized on the surface of the sensor chip according to the operating instructions of amine coupling. VEGF-A165 was diluted to 8, 4, 2, 1, and 0.5 nmol/L in different concentrations of peptide solution dissolved by HBS-EP buffer (0, 0.016, 0.064, 0.256, and 1 μmol/L, respectively). The Kinetics/Affinity program was selected, and the automatic continuous injection program was set. The injection flow rate was 30 μL/min, the injection time was 120 s, and the dissociation time was 220 s. At the same time, zero-concentration injection wells and 0.5 nmol/L repeat-concentration injection wells of VEGF-A165 were set. At the end of each injection, the channels were flushed with glycine-HCl solution for 30 s until response values were returned to baseline."}, "[2]": {"system": "intracranial U87-mCherry-luc glioma", "assay": "In vivo anti-glioma study (bioluminescence)", "set-up": "species or system nude mice", "details": "20 mg/kg/day i.v. (tail vein), 11 days; days 4, 7, 11, 14; n = 5", "procedure": "The orthotopic U87-mCherry-luc glioma-bearing nude mice were randomly assigned to 6 groups (n = 5) according to the bioluminescence intensity of glioma measured on day 4. […] The bioluminescence intensity was measured on days 4, 7, 11, and 14, respectively. Nude mice were weighed daily. On day 15, the mice were sacrificed, and the glioma-bearing brains were harvested. The brain tissues were fixed with 4.0% paraformaldehyde, embedded in paraffin, and cut into slices. The TUNEL staining and CD31 immunohistochemical staining were conducted according to standard histological procedures."}, "HUVECs": {"system": "HUVECs", "assay": "Annexin V-FITC/PI staining, flow cytometry (apoptosis)", "assay_type": "cell-based, human", "details": "320 μmol/L, 24 h", "procedure": "HUVECs were seeded into 6-well culture plates (3 × 10^5 cells/well). […] After discarding the supernatant and washing with cold PBS, the cells were fixed in 4% paraformaldehyde and stained with Hoechst 33,258 for 10 min. Then, the cells were washed with cold PBS and observed using an inverted fluorescence microscope. HUVECs were treated with different peptides (the methods were the same as the Hoechst staining). After 24 h, cells were collected by trypsin digestion and washed with PBS. Annexin V-FITC/PI staining was conducted according to the manufacturer’s instructions for the Apoptosis Detection Kit. Briefly, 195 μL of Annexin V-FITC/PI dilution buffer was added to resuspend the cells. Then, 5 μL of Annexin V-FITC and 10 μL of PI staining solutions were added and gently mixed with the cells. After incubation at room temperature in the dark for 10 min, the apoptotic cells were detected by flow cytometry."}, "[3]": {"system": "zebrafish embryo intersegmental vessel", "assay": "Zebrafish embryo intersegmental vessel angiogenesis", "assay_type": "in vivo", "details": "25 µmol/L; 24 h; 28 °C; fluorescence microscope; vs control; n = 3", "procedure": "After a certain period, healthy, sexually mature female and male zebrafish were mated in a 1:1 ratio. After 24 h, the fertilized eggs were removed, disinfected, and washed, and then placed in embryo culture water and cultured in an incubator at 28 °C for 24 h. The fertilized eggs were washed with chain enzyme protease E solution (1 mg/mL) to remove the egg membrane on the surface and placed under a microscope to observe and select the normally developing zebrafish embryos, and then placed into a 24-well plate. […] The control group was added with the same volume of embryo culture water, and then placed in an incubator at 28 °C for 24 h. Zebrafish embryos were randomly removed from each group and observed under a fluorescence microscope. The total length of zebrafish internode vessels was calculated and counted."}, "VEGFR-2": {"system": "VEGFR-2", "assay_type": "binding, human", "details": "peptide 256 and 1000 nmol/L; VEGF-A165 0.5-8 nmol/L; CM5 chip; HBS-EP", "procedure": "To determine the effect of TAT-AT7 in competition with VEGF-A165 binding to VEGFR-2 or NRP-1, the SPR assay was conducted. The whole operation was conducted on a Biacore S200 instrument. The recombinant VEGFR-2 or NRP-1 proteins were firstly immobilized on a CM5 chip by an amine-coupling reaction. VEGF-A165 ligands with gradient concentrations in the absence or presence of different peptides were then flowed over the CM5 chip. The binding of VEGF-A165 ligands to the immobilized recombinant VEGFR-2 or NRP-1 proteins led to an increase of the refractive index on the surface of the chip, which could be converted into the fluctuation of electrical signals in the response (RU). As the concentration of VEGF-A165 was higher, the response value was also higher. However, with the addition of different peptides, the response value decreased to different degrees (Figure 3A and Figure 4A).\n(TAT), ATWLPPR (AT7), and […] (TAT-AT7) were synthesized from China Peptides Co., Ltd. (Shanghai, China). The Hoechst 33,258 staining kit, Annexin V-FITC/PI apoptosis detection kit, and BCA protein assay kit were obtained from Beyotime Biotechnology (Nantong, China). The total protein extraction kit was from BestBio (Shanghai, China). The CM5 sensor chip was obtained from GE Healthcare Life Sciences (Uppsala, Sweden). Purified recombinant human VEGFR-2 and NRP-1 receptor proteins were purchased from R&D Systems (Minneapolis, MN, USA). Recombinant human endothelial growth factor-A165 (VEGF-A165) was obtained from PeproTech (Rocky Hill, NJ, USA). Anti-ERK1/2, anti-p-ERK1/2, anti-p-VEGFR-2, anti-AKT, anti-p-AKT, anti-p-SRC, anti-p-FAK, anti-p38 MAPK, anti-p-p38 MAPK, anti-p-PLC-γ, and anti-GAPDH antibodies were purchased from Cell Signaling Technology (Danvers, MA, USA). Anti-VEGFR-2, anti-FAK, and anti-SRC were purchased from Proteintech Group, Inc (Wuhan, China). F-12K medium, heparin, and endothelial cell growth supplement (ECGS) were from Macgene (Beijing, China). DMEM medium and fetal bovine serum (FBS) were obtained from Gibco®, Life Technologies (Carlsbad, CA, USA). […]"}, "NRP-1 [4]": {"system": "NRP-1", "set-up": "method as in 2 sources, ref 21 = [21]; PMID 17983687; doi:10.1016/j.peptides.2007.09.013; 21. Starzec A. Ladam P. Vassy R. Badache S. Bouchemal N. Navaza A. du Penhoat C.H. Perret G.Y. Structure-function analysis of the antiangiogenic ATWLPPR peptide inhibiting VEGF (165) binding to neurop ||| ref 36 = [36]; PMID 11327725; doi:10.1006/bbrc.2001.4790; 36. Jia H. Lohr M. Jezequel S. Davis D. Shaikh S. Selwood D. Zachary I. Cysteine-rich and basic domain HIV-1 Tat peptides inhibit angiogenesis and induce endothelial cell apoptosis Biochem. Biophys. R", "details": "cited from earlier work"}},
  "data": [
    {"compound": "N=C(N)NCCC[C@H](NC(=O)[C@H](CCCNC(=N)N)NC(=O)[C@H](CCCNC(=N)N)NC(=O)[C@H](CCC(N)=O)NC(=O)[C@H](CCCNC(=N)N)NC(=O)[C@H](CCCNC(=N)N)NC(=O)[C@H](CCCCN)NC(=O)[C@H](CCCCN)NC(=O)[C@@H](N)CCCNC(=N)N)C(=O)O", "note": "[TAT, reference compound]", "values": [
      {"measurement": "hemolysis", "setting": "red blood cells", "result": "did not cause obvious hemolysis"},
      {"measurement": "hemolysis rate", "setting": "red blood cells", "result": "lower than 5%"},
      {"measurement": "inhibition of binding of VEGF-A165 and NRP-1", "setting": "NRP-1 [1]", "result": "displayed inhibitory effects on the binding of VEGF-A165 and NRP-1, but it did not completely inhibit the binding"},
      {"measurement": "glioma growth (bioluminescence)", "setting": "[2]", "result": "no significant difference compared to the control group"},
      {"measurement": "induction of apoptosis", "setting": "HUVECs; Hoechst and Annexin V-FITC/PI staining", "result": "no obvious effect of promoting apoptosis"},
      {"measurement": "total apoptotic rate (Q1-UR and Q1-LR)", "setting": "HUVECs; mean ± SD, n = 3, control (7.17 ± 1.42)%", "result": "8.94 ± 3.52", "unit": "%"},
      {"measurement": "intersegmental vascular growth", "setting": "[3]", "result": "no obvious effect on intersegmental vascular growth"},
      {"measurement": "effect on VEGF-A165 and VEGFR-2 binding (RU)", "setting": "VEGFR-2", "result": "less inhibitory effects on VEGF-A165 and VEGFR-2 binding than TAT-AT7"}
    ]},
    {"compound": "KKRRQRRRPPQG [HIV-1 Tat-derived peptide]", "values": [
      {"measurement": "disturbing the cross-linking of VEGF to NRP-1", "setting": "NRP-1 [4]", "result": "displayed potency in disturbing the cross-linking of VEGF to NRP-1"}
    ]},
    {"compound": "KRRQRRRPPQGNQAHQDPLP [HIV-1 Tat-derived peptide]", "values": [
      {"measurement": "disturbing the cross-linking of VEGF to NRP-1", "setting": "NRP-1 [4]", "result": "displayed potency in disturbing the cross-linking of VEGF to NRP-1"}
    ]},
    {"compound": "SYGRKKRRQRRR [HIV-1 Tat-derived peptide]", "values": [
      {"measurement": "disturbing the cross-linking of VEGF to NRP-1", "setting": "NRP-1 [4]", "result": "displayed potency in disturbing the cross-linking of VEGF to NRP-1"}
    ]}
  ]
}
